Counter-ions that a name gives are not always drawn. Like-named read-outs stand apart in the source and are kept apart here.
Target: T1, VEGF-A/VEGFR1 (recombinant VEGF-A binding to immobilized VEGFR1) (Homo sapiens, UniProt P17948)
T1 construct: purchased R&D Systems
Assay: Competitive ELISA for VEGF-A/VEGFR-1 interaction
Assay type: biochemical
Procedure: The competitive ELISA based assay was performed by coating on 96-well plates a recombinant form of VEGFR-1 (R&D Systems, Minneapolis, MN, USA) at 0.5 µg/mL in PBS, 100 µL/well (the same volume was used for all subsequent steps), 16 h at room temperature. The plate was then blocked for 3 h at RT with 1% bovine serum albumin (BSA). Recombinant form of VEGF-A (R&D Systems) at 5 ng/mL in PBS containing 0.1% BSA, 5 mM EDTA, 0.004% Tween 20 (PBET) and 4% DMSO, was added alone or mixed with peptides at a concentration ranging between 0.04 and 100 µM, and incubated for 1 h at 37 °C followed by 1 h at RT. A biotinylated anti VEGF-A polyclonal antibody (R&D Systems) diluted in PBET at 150 ng/mL, was added to the wells and incubated for 1 h at 37 °C followed by 1 h at RT. […] The reaction was blocked by adding 30 µL/well of 4 N H2SO4 and the absorbance measured at 490 nm on a microplate reader (BenchMark, Biorad, Hercules, CA, USA).

[1] = competitive ELISA, VEGFR-1 coated 0.5 µg/mL, VEGF-A 5 ng/mL, peptides 0.04-100 µM, PBET, 4% DMSO, 1 h 37 °C then 1 h RT, absorbance 490 nm, mean of two independent experiments in triplicate, read-out: IC50 of VEGF-A binding to VEGFR1 (concentration at 50% inhibition)

T1 sequence (P17948 27-687 limits assumed, species assumed): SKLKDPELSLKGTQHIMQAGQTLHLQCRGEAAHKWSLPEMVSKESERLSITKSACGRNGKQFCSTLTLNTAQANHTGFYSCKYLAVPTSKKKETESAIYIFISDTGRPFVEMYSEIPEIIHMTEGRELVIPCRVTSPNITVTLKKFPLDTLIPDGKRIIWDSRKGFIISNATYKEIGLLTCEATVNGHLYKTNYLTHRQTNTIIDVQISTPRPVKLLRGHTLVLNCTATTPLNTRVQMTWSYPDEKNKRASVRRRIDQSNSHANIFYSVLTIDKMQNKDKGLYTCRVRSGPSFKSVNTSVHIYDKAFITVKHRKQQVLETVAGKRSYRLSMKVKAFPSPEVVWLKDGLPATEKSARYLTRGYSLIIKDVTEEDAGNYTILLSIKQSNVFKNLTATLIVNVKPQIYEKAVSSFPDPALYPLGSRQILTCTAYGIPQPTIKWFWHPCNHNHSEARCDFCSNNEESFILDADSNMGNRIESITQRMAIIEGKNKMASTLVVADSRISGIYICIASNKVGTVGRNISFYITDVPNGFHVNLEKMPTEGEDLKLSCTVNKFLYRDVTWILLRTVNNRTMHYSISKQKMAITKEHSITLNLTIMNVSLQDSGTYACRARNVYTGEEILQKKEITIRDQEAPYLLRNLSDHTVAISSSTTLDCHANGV

SMILES | IC50 (acetate counter-ion, VEGF-A/VEGFR1, read-out: IC50 of iVR1 after TFA replaced with acetate (rounded, discussion)) | IC50 [1] | Increase in inhibitory activity (reduction of IC50) upon TFA to acetate exchange (iVR1-Ac vs iVR1-TFA, VEGF-A/VEGFR1 competitive ELISA)
N[C@H](CCC(=O)O)C(=O)N[C@@H](CSCc1ccccc1)C(=O)N[C@@H](CC1CCCCC1)C(=O)NCCCC[C@H](NC(=O)[C@H](CC1CCCCC1)NC(=O)[C@H](CSCc1ccccc1)NC(=O)[C@H](N)CCC(=O)O)C(=O)NCCCC[C@H](NC(=O)[C@H](CCCCNC(=O)[C@H](CC1CCCCC1)NC(=O)[C@H](CSCc1ccccc1)NC(=O)[C@H](N)CCC(=O)O)NC(=O)[C@H](CC1CCCCC1)NC(=O)[C@H](CSCc1ccccc1)NC(=O)[C@H](N)CCC(=O)O)C(=O)NCC(=O)O [iVR1, [D-Glu-L-Cys(Bzl)-L-Cha]4-Lys2-Lys-Gly] | < 2000 nM | – | –
N[C@H](CCC(=O)O)C(=O)N[C@@H](CSCc1ccccc1)C(=O)N[C@@H](CC1CCCCC1)C(=O)NCCCC[C@H](NC(=O)[C@H](CC1CCCCC1)NC(=O)[C@H](CSCc1ccccc1)NC(=O)[C@H](N)CCC(=O)O)C(=O)NCCCC[C@H](NC(=O)[C@H](CCCCNC(=O)[C@H](CC1CCCCC1)NC(=O)[C@H](CSCc1ccccc1)NC(=O)[C@H](N)CCC(=O)O)NC(=O)[C@H](CC1CCCCC1)NC(=O)[C@H](CSCc1ccccc1)NC(=O)[C@H](N)CCC(=O)O)C(=O)NCC(=O)O [iVR1-Ac, [D-Glu-L-Cys(Bzl)-L-Cha]4-Lys2-Lys-Gly] | – | 1940 nM | about five
N[C@H](CCC(=O)O)C(=O)N[C@@H](CSCc1ccccc1)C(=O)N[C@@H](CC1CCCCC1)C(=O)NCCCC[C@H](NC(=O)[C@H](CC1CCCCC1)NC(=O)[C@H](CSCc1ccccc1)NC(=O)[C@H](N)CCC(=O)O)C(=O)NCCCC[C@H](NC(=O)[C@H](CCCCNC(=O)[C@H](CC1CCCCC1)NC(=O)[C@H](CSCc1ccccc1)NC(=O)[C@H](N)CCC(=O)O)NC(=O)[C@H](CC1CCCCC1)NC(=O)[C@H](CSCc1ccccc1)NC(=O)[C@H](N)CCC(=O)O)C(=O)NCC(=O)O [iVR1-TFA, [D-Glu-L-Cys(Bzl)-L-Cha]4-Lys2-Lys-Gly] | – | 9350 nM | –
